Tested on: SEM cells
Assay: cell viability relative to DMSO control; higher = less cytotoxic
Settings: 48 h
In short: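 Cells were incubated for 48 h at 37°C before CellTiter-Glo One luminescence was read. The cells were NOMO1 or SEM (500 cells/well) or P12-Ichikawa (1000 cells/well) leukemia cells, adapted for at least four passages in each medium and seeded in 1536-well plates (5 μl). Dosing used library compounds in DMSO applied by pin over 11 threefold points, 47 μM to 0.79 nM. Viability is the per-plate percentage of DMSO wells, with cell-free wells as background.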

[1] = HPLM + 10% dialyzed FBS, 0.000781 µM
[2] = HPLM + 10% dialyzed FBS, 0.00234 µM
[3] = HPLM + 10% dialyzed FBS, 0.00702 µM
[4] = HPLM + 10% dialyzed FBS, 0.0211 µM
[5] = HPLM + 10% dialyzed FBS, 0.0632 µM
[6] = HPLM + 10% dialyzed FBS, 0.19 µM
[7] = HPLM + 10% dialyzed FBS, 0.569 µM
[8] = HPLM + 10% dialyzed FBS, 1.71 µM
[9] = HPLM + 10% dialyzed FBS, 5.12 µM
[10] = HPLM + 10% dialyzed FBS, 15.4 µM
[11] = HPLM + 10% dialyzed FBS, 46.1 µM
[12] = RPMI 5 mM glucose + 10% FBS, 0.000781 µM
[13] = RPMI 5 mM glucose + 10% FBS, 0.00234 µM
[14] = RPMI 5 mM glucose + 10% FBS, 0.00702 µM
[15] = RPMI 5 mM glucose + 10% FBS, 0.0211 µM
[16] = RPMI 5 mM glucose + 10% FBS, 0.0632 µM
[17] = RPMI 5 mM glucose + 10% FBS, 0.19 µM
[18] = RPMI 5 mM glucose + 10% FBS, 0.569 µM
[19] = RPMI 5 mM glucose + 10% FBS, 1.71 µM
[20] = RPMI 5 mM glucose + 10% FBS, 5.12 µM
[21] = RPMI 5 mM glucose + 10% FBS, 15.4 µM
[22] = RPMI 5 mM glucose + 10% FBS, 46.1 µM
[23] = RPMI 5 mM glucose + 10% dialyzed FBS, 0.000781 µM
[24] = RPMI 5 mM glucose + 10% dialyzed FBS, 0.00234 µM
[25] = RPMI 5 mM glucose + 10% dialyzed FBS, 0.00702 µM
[26] = RPMI 5 mM glucose + 10% dialyzed FBS, 0.0211 µM
[27] = RPMI 5 mM glucose + 10% dialyzed FBS, 0.0632 µM
[28] = RPMI 5 mM glucose + 10% dialyzed FBS, 0.19 µM
[29] = RPMI 5 mM glucose + 10% dialyzed FBS, 0.569 µM
[30] = RPMI 5 mM glucose + 10% dialyzed FBS, 1.71 µM
[31] = RPMI 5 mM glucose + 10% dialyzed FBS, 5.12 µM
[32] = RPMI 5 mM glucose + 10% dialyzed FBS, 15.4 µM
[33] = RPMI 5 mM glucose + 10% dialyzed FBS, 46.1 µM

SMILES	cell viability [1] [%]	cell viability [2] [%]	cell viability [3] [%]	cell viability [4] [%]	cell viability [5] [%]	cell viability [6] [%]	cell viability [7] [%]	cell viability [8] [%]	cell viability [9] [%]	cell viability [10] [%]	cell viability [11] [%]	cell viability [12] [%]	cell viability [13] [%]	cell viability [14] [%]	cell viability [15] [%]	cell viability [16] [%]	cell viability [17] [%]	cell viability [18] [%]	cell viability [19] [%]	cell viability [20] [%]	cell viability [21] [%]	cell viability [22] [%]	cell viability [23] [%]	cell viability [24] [%]	cell viability [25] [%]	cell viability [26] [%]	cell viability [27] [%]	cell viability [28] [%]	cell viability [29] [%]	cell viability [30] [%]	cell viability [31] [%]	cell viability [32] [%]	cell viability [33] [%]
Cn1c(=O)c2c(ncn2CC(O)CO)n(C)c1=O (stereo unspecified)	87.4	101	116	92.6	104	109	113	111	96	108	124	106	96.7	120	101	120	123	113	111	111	111	122	93.1	120	99.3	110	116	113	121	133	135	125	137
COc1cc(N2CCC(N3CCN(C)CC3)CC2)ccc1Nc1ncnc(Nc2ccccc2[S+](=O)([O-])C(C)C)n1	69.6	81.5	85.8	99.3	67.4	106	104	88.4	67.6	25.2	11.9	71.3	72.6	90.7	93.8	59.6	123	109	81	59.4	22.5	7.39	87.4	90.2	82.2	85.7	69.8	132	127	109	72.7	26.4	12.9
NC\1=N\C(=O)N(\C=N1)[C@H]2C[C@H](O)[C@@H](CO)O2	57.8	100	94.7	97.2	118	101	89.8	71.3	41	29.5	16.5	54.1	91.3	86	92.9	107	92	81.8	63.8	32.2	22.2	12.1	55.1	99.4	81	84.3	91.4	93.3	67.5	49.1	32	27.5	21.2
COc1ccc2cc(-c3[nH]c(-c4ccc([S+](C)[O-])cc4)nc3-c3ccncc3)ccc2c1 (stereo unspecified)	92.4	104	105	109	109	114	121	107	126	127	107	76.8	105	96.3	85.9	95	101	101	106	110	111	71.9	88.6	109	102	105	101	116	127	109	111	116	88.9
CC1=C2N=C([NH]C2=CC(=C1)N3CCOCC3)\C4=C(NC[C@@H](O)C5=CC=CC(=C5)Cl)\C=C/NC4=O	77.8	95.7	91.4	91.2	82.8	75.8	61.3	52.5	26.9	19.4	15.4	81.3	105	122	115	94.1	95.6	83.7	56.2	26.6	14.2	8.45	70.7	90.3	84.6	80.1	67.9	75.1	66.8	46.7	21.1	13.7	7.96
O=C1[O][Pt]2([NH]C3CCCCC3[NH]2)[O]C1=O (stereo unspecified)	95.9	110	102	107	105	108	101	91.5	27	3.68	4.13	74	77.5	69	66.6	83.8	84	81.7	60.3	15	2.66	2.68	84.7	97.5	104	114	108	102	118	91.3	42.6	3.5	3.34
CC(C)[C@@H](N(CCCN)C(=O)C1=CC=C(C)C=C1)C/2=C(\CC3=CC=CC=C3)C(=O)C4=C(O2)C=C(Cl)C=C4	22.2	26.3	24.4	24.6	26.6	23.9	28.2	25.2	25.7	26.6	5.56	13.8	20.2	19.9	22.5	20	22.6	22.4	19.1	27.9	20.9	13.9	18.5	20.5	20	25.6	19.4	26.5	20	21.1	20.8	18.5	19.4

Source: the supplement of paper PMC11451515
